This is an account of results in ChEMBL document CHEMBL4311992, “Discovery of 3-(((9H-purin-6-yl)amino)methyl)-4,6-dimethylpyridin-2(1H)-one derivatives as novel tubulin polymerization inhibitors for treatment of cancer” (Eur J Med Chem, 2019).

The target of assay [1] is Calcium/calmodulin-dependent protein kinase type 1B (Homo sapiens) (UniProt Q6P2M8). The assay can be described thus: Inhibition of recombinant full-length human CaMK1beta assessed as residual activity at 10 uM using calmodulin as substrate measured after 40 mins in presence of [gamma33P]ATP by scintillation counting method.
Assay [2] has as its system SW-620. The assay can be described thus: Induction of apoptosis in human SW620 cells assessed as viable cells at 25 nM measured after 48 hrs by Annexin V-FITC/propidium iodide staining-based flow cytometry (reference value: 94.7%). The format is functional. To be noted: SW-620, 48 h, read-out: Activity. For orientation: Flow cytometry measures light scatter and fluorescence of single cells or particles in a stream.

For assay [3], the target named is Dual specificity tyrosine-phosphorylation-regulated kinase 1B (Homo sapiens) (UniProt Q9Y463). The assay can be described thus: Inhibition of recombinant full-length human DYRK1B assessed as residual activity at 10 uM using RRRFRPASPLRGPPK as substrate measured after 40 mins in presence of [gamma33P]ATP by scintillation counting method.
Chain of Dual specificity tyrosine-phosphorylation-regulated kinase 1B (Homo sapiens) (Q9Y463 whole entry, looked up): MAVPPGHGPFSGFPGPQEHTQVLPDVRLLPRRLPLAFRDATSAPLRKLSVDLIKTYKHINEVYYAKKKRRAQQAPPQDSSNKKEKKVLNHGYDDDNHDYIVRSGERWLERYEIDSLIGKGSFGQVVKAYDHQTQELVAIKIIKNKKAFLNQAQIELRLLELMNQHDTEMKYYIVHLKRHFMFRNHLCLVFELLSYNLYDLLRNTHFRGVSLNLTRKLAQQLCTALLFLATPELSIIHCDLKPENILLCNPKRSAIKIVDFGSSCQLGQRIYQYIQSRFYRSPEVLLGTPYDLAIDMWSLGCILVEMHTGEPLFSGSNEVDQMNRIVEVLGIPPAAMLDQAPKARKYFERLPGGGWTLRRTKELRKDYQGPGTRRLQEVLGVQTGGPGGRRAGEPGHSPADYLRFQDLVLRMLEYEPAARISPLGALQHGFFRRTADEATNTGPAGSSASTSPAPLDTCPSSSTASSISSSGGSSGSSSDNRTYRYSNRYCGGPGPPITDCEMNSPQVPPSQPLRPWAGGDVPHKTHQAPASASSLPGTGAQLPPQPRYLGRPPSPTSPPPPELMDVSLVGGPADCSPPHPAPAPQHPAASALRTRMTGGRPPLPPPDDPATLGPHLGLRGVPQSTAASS
Assay [4] deals with Serine/threonine-protein kinase Nek3 (Homo sapiens) (UniProt P51956). Nature of the assay: Inhibition of recombinant full-length human NEK3 assessed as residual activity at 10 uM using myelin basic protein as substrate measured after 40 mins in presence of [gamma33P]ATP by scintillation counting method.
Chain of Serine/threonine-protein kinase Nek3 (Homo sapiens) (P51956 whole entry, the tested form may be a part): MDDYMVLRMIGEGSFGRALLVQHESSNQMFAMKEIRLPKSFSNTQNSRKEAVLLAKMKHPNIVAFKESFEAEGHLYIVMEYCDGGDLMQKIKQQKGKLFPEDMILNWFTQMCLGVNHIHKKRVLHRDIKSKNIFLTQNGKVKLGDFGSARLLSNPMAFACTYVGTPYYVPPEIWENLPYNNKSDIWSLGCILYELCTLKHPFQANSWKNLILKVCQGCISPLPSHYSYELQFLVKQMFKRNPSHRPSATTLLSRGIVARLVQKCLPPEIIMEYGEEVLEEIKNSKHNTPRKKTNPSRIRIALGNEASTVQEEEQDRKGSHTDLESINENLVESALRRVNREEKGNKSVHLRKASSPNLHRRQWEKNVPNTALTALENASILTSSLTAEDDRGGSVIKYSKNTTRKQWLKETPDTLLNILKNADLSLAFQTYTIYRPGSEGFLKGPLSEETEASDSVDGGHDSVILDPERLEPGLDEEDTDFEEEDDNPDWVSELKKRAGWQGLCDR
Assay [5] concerns the target Myosin-IIIb (Homo sapiens) (UniProt Q8WXR4). The assay can be described thus: Inhibition of recombinant full-length human MYO3B (1 to 326 residues) assessed as residual activity at 10 uM using RLGRDKYKTLRQIRQ as substrate measured after 40 mins in presence of [gamma33P]ATP by scintillation counting method.
For assay [6], the system named is SW-620. The assay can be described thus: Induction of apoptosis in human SW620 cells assessed as necrotic cells at 25 nM measured after 48 hrs by Annexin V-FITC/propidium iodide staining-based flow cytometry (reference value: 2.71%). The format is functional.
Assay [7] has as its target Cyclin-dependent kinase-like 3 (Homo sapiens) (UniProt Q8IVW4). The assay can be described thus: Inhibition of recombinant human full-length CDKL3 (1 to 303 residues) assessed as residual activity at 10 uM using RRRFRPASPLRGP as substrate measured after 120 mins in presence of [gamma33P]ATP by scintillation counting method.
The target in assay [8] is Ephrin type-A receptor 5 (Homo sapiens) (UniProt P54756). The assay can be described thus: Inhibition of recombinant human EphA5 (655 to 956 residues) assessed as residual activity at 10 uM using poly(Glu, Tyr) 4:1 as substrate measured after 40 mins in presence of [gamma33P]ATP by scintillation counting method.
Assay [9] concerns eIF-2-alpha kinase GCN2 (Homo sapiens), Q9P2K8 [E556G]. Nature of the assay: Inhibition of recombinant full-length human GCN2 E556G mutant assessed as residual activity at 10 uM using RSRSRSRSRSRSRSR as substrate measured after 40 mins in presence of [gamma33P]ATP by scintillation counting method.
Chain of eIF-2-alpha kinase GCN2 (Homo sapiens), Q9P2K8 [E556G] (Q9P2K8 whole entry E556G): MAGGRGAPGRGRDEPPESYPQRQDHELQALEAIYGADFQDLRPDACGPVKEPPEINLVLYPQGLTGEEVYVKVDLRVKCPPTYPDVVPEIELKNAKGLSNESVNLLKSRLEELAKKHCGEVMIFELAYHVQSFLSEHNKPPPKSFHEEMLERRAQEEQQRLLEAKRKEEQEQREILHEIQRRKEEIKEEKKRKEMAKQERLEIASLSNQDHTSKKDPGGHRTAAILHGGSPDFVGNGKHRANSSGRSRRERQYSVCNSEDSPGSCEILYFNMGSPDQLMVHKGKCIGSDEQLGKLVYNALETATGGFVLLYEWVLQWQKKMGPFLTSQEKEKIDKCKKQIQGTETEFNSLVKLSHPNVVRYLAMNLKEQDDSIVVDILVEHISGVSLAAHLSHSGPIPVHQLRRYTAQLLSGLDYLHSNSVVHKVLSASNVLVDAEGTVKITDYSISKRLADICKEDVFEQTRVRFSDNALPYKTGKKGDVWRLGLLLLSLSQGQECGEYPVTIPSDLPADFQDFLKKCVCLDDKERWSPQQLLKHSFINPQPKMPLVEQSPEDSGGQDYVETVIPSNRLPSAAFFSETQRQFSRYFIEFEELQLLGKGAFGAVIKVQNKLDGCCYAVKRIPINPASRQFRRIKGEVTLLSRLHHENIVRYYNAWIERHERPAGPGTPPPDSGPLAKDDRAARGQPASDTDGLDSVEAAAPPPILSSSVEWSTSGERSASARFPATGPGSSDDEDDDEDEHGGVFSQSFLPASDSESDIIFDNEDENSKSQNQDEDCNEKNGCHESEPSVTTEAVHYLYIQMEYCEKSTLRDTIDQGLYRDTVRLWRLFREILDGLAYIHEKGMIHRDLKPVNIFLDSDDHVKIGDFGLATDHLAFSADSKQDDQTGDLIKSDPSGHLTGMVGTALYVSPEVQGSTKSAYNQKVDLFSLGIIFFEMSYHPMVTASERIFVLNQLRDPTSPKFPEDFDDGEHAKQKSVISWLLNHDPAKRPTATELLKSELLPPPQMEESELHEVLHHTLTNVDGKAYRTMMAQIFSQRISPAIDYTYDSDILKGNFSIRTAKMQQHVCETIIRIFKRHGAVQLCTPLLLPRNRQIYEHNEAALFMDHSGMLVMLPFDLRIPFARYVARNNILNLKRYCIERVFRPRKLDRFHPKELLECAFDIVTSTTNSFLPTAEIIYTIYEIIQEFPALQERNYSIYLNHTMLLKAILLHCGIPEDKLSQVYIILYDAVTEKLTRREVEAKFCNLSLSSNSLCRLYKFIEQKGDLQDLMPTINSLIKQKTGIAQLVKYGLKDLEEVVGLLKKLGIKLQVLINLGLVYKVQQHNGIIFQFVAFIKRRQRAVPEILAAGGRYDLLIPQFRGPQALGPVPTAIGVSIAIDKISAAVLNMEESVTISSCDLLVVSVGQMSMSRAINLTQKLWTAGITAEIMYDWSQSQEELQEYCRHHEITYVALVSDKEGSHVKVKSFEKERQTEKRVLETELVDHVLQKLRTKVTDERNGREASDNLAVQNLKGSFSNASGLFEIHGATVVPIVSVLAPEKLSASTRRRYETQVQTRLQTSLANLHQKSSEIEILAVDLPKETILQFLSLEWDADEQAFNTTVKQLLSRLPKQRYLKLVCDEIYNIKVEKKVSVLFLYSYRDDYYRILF
Assay [10] relates to Epidermal growth factor receptor (Homo sapiens), P00533 [L858R,T790M]. Nature of the assay: Inhibition of recombinant human EGFR T790M/L858R mutant (696 to end residues) assessed as residual activity at 10 uM using GGMEDIYFEFMGGKKK as substrate measured after 40 mins in presence of [gamma33P]ATP by scintillation counting method.
Assay [11] concerns the target Serine/threonine-protein kinase TAO2 (Homo sapiens) (UniProt Q9UL54). The assay can be described thus: Inhibition of human TAO2 (1 to 320 residues) using myelin basic protein as substrate measured after 40 mins in presence of [gamma33P]ATP by scintillation counting method. More on the design: scale not given: the % may be the effect or the level left.
In assay [12] the target is Ephrin type-A receptor 3 (Homo sapiens) (UniProt P29320). Nature of the assay: Inhibition of recombinant human EphA3 (578 to end residues) assessed as residual activity at 10 uM using poly(Glu, Tyr) 4:1 as substrate measured after 40 mins in presence of [gamma33P]ATP by scintillation counting method.
The target of assay [13] is Serine/threonine-protein kinase ULK1 (Homo sapiens) (UniProt O75385). The assay can be described thus: Inhibition of human ULK1 (1 to 314 residues) using casein as substrate measured after 40 mins in presence of [gamma33P]ATP by scintillation counting method. More on the design: scale not given: the % may be the effect or the level left.
Chain of Serine/threonine-protein kinase ULK1 (Homo sapiens) (O75385 whole entry, the tested form may be a part): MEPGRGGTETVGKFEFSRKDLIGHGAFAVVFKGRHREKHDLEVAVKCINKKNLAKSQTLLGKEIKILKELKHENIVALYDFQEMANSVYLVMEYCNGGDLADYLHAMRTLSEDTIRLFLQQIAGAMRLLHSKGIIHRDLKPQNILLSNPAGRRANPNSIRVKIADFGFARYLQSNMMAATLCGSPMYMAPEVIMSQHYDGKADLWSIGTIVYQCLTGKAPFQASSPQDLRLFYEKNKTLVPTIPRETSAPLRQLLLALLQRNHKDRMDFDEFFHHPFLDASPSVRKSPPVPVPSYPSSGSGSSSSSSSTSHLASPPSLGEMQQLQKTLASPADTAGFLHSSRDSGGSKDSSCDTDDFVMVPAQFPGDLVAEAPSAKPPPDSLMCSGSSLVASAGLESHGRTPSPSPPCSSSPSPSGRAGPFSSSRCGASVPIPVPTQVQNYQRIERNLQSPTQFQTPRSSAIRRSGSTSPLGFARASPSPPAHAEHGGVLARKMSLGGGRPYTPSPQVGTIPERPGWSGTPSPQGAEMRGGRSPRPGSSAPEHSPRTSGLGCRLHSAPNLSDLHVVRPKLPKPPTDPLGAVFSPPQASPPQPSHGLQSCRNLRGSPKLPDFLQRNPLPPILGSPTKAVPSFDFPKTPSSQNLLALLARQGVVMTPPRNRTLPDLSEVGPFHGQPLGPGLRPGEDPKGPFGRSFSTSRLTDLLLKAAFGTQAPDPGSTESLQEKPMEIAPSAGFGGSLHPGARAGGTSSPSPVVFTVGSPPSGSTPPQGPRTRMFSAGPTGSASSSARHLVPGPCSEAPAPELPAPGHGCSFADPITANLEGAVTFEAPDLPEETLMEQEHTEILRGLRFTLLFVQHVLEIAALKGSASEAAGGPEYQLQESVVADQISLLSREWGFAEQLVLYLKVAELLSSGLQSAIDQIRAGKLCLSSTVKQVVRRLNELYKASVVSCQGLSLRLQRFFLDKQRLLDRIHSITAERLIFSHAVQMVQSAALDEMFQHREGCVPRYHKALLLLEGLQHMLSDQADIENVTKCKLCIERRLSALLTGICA
For assay [14], the target named is Serine/threonine-protein kinase SIK2 (Homo sapiens) (UniProt Q9H0K1). The assay can be described thus: Inhibition of human SIK2 (1 to 276 residues) using KKKVSRSGLYRSPSMPENLNRPR as substrate measured after 40 mins in presence of [gamma33P]ATP by scintillation counting method. More on the design: scale not given: the % may be the effect or the level left.
Assay [15] has as its target Transcription initiation factor TFIID subunit 1-like (Homo sapiens) (UniProt Q8IZX4). Nature of the assay: Inhibition of human TAF1L (1428 to end residues) using RRRFRPASPLRGPPK as substrate measured after 120 mins in presence of [gamma33P]ATP by scintillation counting method. Also noted: scale not given: the % may be the effect or the level left.
In assay [16] the target is Serine/threonine-protein kinase B-raf (Homo sapiens) (UniProt P15056). The assay can be described thus: Inhibition of recombinant human BRAF (416 to end residues) assessed as residual activity at 10 uM using myelin basic protein as substrate measured after 40 mins in presence of [gamma33P]ATP by scintillation counting method.
The target of assay [17] is Serine/threonine-protein kinase Nek11 (Homo sapiens) (UniProt Q8NG66). Nature of the assay: Inhibition of recombinant full-length human NEK11 assessed as residual activity at 10 uM using myelin basic protein as substrate measured after 40 mins in presence of [gamma33P]ATP by scintillation counting method.
Chain of Serine/threonine-protein kinase Nek11 (Homo sapiens) (Q8NG66 whole entry): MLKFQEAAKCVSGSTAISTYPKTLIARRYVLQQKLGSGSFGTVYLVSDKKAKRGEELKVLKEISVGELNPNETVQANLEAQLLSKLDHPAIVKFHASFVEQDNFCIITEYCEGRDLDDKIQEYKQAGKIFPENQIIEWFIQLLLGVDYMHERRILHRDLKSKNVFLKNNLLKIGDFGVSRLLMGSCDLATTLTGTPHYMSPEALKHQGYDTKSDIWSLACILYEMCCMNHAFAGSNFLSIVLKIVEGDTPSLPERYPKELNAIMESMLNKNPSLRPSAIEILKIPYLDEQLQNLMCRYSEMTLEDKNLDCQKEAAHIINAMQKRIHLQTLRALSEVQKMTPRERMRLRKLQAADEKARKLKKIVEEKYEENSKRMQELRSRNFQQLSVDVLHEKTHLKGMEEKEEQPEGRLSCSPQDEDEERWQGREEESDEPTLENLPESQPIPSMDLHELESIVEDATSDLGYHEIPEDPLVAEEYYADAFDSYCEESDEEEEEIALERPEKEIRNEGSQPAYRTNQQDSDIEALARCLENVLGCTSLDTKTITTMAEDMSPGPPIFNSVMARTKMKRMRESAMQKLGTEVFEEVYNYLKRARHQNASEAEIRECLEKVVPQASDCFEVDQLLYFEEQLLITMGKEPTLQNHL
For assay [18], the target named is PI3K p110 beta/p85 alpha (Homo sapiens) (UniProt P27986+P42338). Nature of the assay: Inhibition of recombinant full-length human PI3K p110beta/p85alpha assessed as residual activity at 10 uM using phosphatidylinositol-4, 5-bisphosphate as substrate measured after 40 mins by fluorescence assay. In kind it is protein-complex assay.
Assay [19] relates to Casein kinase I isoform gamma-3 (Homo sapiens), Q9Y6M4 [UNDEFINED MUTATION]. The assay can be described thus: Inhibition of recombinant human CK1gamma3 K91E/R174G/E302D mutant (1 to 330 residues) assessed as residual activity at 10 uM using KRRRALS(p)VASLPGL as substrate measured after 40 mins in presence of [gamma33P]ATP by scintillation counting method.
Chain of Casein kinase I isoform gamma-3 (Homo sapiens), Q9Y6M4 [UNDEFINED MUTATION] (Q9Y6M4 whole entry, looked up, stated change not applied, the tested form may be a part, canonical isoform): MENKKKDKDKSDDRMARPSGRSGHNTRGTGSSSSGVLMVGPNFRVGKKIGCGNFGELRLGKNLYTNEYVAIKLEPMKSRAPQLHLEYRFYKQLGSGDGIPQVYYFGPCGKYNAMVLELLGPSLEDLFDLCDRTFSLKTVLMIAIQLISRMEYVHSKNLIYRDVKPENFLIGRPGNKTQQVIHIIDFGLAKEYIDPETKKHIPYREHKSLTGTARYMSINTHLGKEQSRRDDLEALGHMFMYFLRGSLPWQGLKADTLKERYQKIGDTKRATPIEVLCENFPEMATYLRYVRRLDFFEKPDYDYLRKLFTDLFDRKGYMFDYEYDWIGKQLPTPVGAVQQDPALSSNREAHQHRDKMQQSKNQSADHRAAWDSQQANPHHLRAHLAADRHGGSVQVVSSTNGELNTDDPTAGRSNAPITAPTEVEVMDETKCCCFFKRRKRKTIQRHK
In assay [20] the target is TRAF2 and NCK-interacting protein kinase (Homo sapiens) (UniProt Q9UKE5). Nature of the assay: Inhibition of human TNIK (1 to 367 residues) using RLGRDKYKTLRQIRQ as substrate measured after 40 mins in presence of [gamma33P]ATP by scintillation counting method. More on the design: scale not given: the % may be the effect or the level left.
Assay [21] deals with Receptor-type tyrosine-protein kinase FLT3 (Homo sapiens), P36888 [D835Y]. Nature of the assay: Inhibition of recombinant human Flt3 D835Y mutant (564 to end residues) assessed as residual activity at 10 uM using EAIYAAPFAKKK as substrate measured after 40 mins in presence of [gamma33P]ATP by scintillation counting method.
The next assay concerns CT26. Nature of the assay: Antiproliferative activity against mouse CT26 cells assessed as reduction in cell viability after 72 hrs by MTT assay. The format is functional, cell-based. The settings on record: CT26, 72 h. (Formazan colour is commonly taken as a measure of viable cells.)
Assay [22] relates to SW-620. The assay can be described thus: Induction of apoptosis in human SW620 cells assessed as viable cells at 50 nM measured after 48 hrs by Annexin V-FITC/propidium iodide staining-based flow cytometry (reference value: 94.7%). In kind it is functional. To be noted: SW-620, 48 h, read-out: Activity.

The IC50 is the concentration that inhibits the measured activity by half.

Regarding `Cc1cc(C)c(CNc2nc(Cl)nc3c2ncn3C2CCCC2)c(=O)[nH]1`, the Activity in [1] was found to be 107%; in assay [3] it was 100%; in assay [4], 102%; in [5], 111%; with SW-620 [6], 2.71%; in [7] it was 126%. The Activity stood at 99% in [8]; 110% in assay [9]; 96.5% in assay [10]; 104% in [11]; 102% in assay [12]; 104% in [13]. Further, the Activity in assay [14] came to 97%; in assay [15], 108%; in assay [16], 122%; in assay [17], 102%; in assay [18], 104%; in assay [19] it was 106%. The Activity was found to be 108% in [20] and 85.5% in assay [21]. Besides, in the assay with SW-620 [2], the viability at 0.025 µM is 61.8%. Further, the IC50 in the assay with CT26 came to 45.5 nM. The viability at 0.05 µM in the assay with SW-620 [22] came out at 83.4%.
